Where two headings read alike, the source gives them in different places.
Legend:
[1] = molecular target: GDP-bound KRAS wild-type protein (Homo sapiens, UniProt P01116); assay: Binding to KRAS by surface plasmon resonance (SPR), Single Cycle Kinetics
[2] = molecular target: GDP-bound NRAS wild-type protein (Homo sapiens, UniProt P01111); assay: Binding to NRAS by surface plasmon resonance (SPR), Single Cycle Kinetics; settings: for NRAS/KRAS (ratio of KD value for NRAS to KD value for KRAS) / ratio of the KD value with respect to GDP-bound NRAS wild-type protein to the KD value with respect to KRAS: SPR; for NRAS/KRAS (ratio of KD value for NRAS to KD value for KRAS): GDP-bound NRAS wild-type protein vs GDP-bound KRAS wild-type protein
Sequence of GDP-bound NRAS wild-type protein (P01111 whole entry): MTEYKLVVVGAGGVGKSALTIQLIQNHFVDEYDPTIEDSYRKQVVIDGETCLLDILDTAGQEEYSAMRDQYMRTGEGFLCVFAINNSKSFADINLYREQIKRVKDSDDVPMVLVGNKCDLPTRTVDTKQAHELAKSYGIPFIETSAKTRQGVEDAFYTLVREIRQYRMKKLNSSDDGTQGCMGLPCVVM

[3] = molecular target: GDP-bound HRAS wild-type protein (Homo sapiens, UniProt P01112); assay: Binding to HRAS by surface plasmon resonance (SPR), Single Cycle Kinetics; settings: for HRAS/KRAS (ratio of KD value for HRAS to KD value for KRAS) / ratio of the KD value with respect to GDP-bound HRAS wild-type protein to the KD value with respect to KRAS: SPR; for HRAS/KRAS (ratio of KD value for HRAS to KD value for KRAS): GDP-bound HRAS wild-type protein vs GDP-bound KRAS wild-type protein
Sequence of GDP-bound HRAS wild-type protein (P01112 whole entry): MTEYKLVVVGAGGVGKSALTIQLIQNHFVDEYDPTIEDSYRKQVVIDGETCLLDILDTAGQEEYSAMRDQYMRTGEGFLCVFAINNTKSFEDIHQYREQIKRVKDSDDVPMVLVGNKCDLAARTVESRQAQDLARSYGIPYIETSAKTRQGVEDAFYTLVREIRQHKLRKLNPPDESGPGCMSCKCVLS

[4] = test system: human lung cancer strain NCI-H441;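 note: cell proliferation inhibition after four days measured by CellTiter-Glo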
[5] = SPR, Single Cycle Kinetics, GDP-bound KRAS wild-type protein, read-out: KRAS KD
[6] = SPR, Single Cycle Kinetics, 1:1 binding model, GDP-bound KRAS wild-type protein, read-out: KRAS KD
[7] = read-out: NCI-H441 cell proliferation inhibitory activity, 50% proliferation inhibitory concentration (IC50 value), NCI-H441, four days, CellTiter-Glo

Sequence of GDP-bound KRAS wild-type protein (P01116 whole entry): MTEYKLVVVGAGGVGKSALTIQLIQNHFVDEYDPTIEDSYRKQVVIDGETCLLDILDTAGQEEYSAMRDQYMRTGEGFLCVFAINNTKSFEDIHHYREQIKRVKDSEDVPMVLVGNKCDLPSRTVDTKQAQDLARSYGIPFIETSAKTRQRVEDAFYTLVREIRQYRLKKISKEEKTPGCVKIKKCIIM

Row | SMILES | Kd [1, 5] [nM] | NRAS/KRAS (ratio of KD value for NRAS to KD value for KRAS) [2] | HRAS/KRAS (ratio of KD value for HRAS to KD value for KRAS) [3] | IC50 [4] [nM] | Kd [1, 6] [nM] | NRAS/KRAS (ratio of KD value for NRAS to KD value for KRAS) ([2]; KD ratio class) | HRAS/KRAS (ratio of KD value for HRAS to KD value for KRAS) ([3]; KD ratio class) | further results
1 | CCO[C@@H]1C[C@H]2C(=O)NC3(CCC3)C(=O)N(C)[C@@H](C3CCCC3)C(=O)N(C)[C@H](C(=O)N3CCOCC3)CC(=O)N(C)[C@@H](Cc3ccc(C#N)cc3)C(=O)N[C@@H]([C@@H](C)CC)C(=O)N(C)CC(=O)N(C)[C@H]3CCCCCN(C3=O)[C@@H](Cc3ccc(F)cc3)C(=O)N(C)CC(=O)N[C@@H](CCc3cc(F)c(C(F)(F)F)c(F)c3)C(=O)N2C1 [PP1187] | 0.12 | B (a compound having 3 or more and less than 10 is denoted as B) | B (a compound having 3 or more and less than 10 is denoted as B) | 52.3 |  |  |  | 
2 | CCO[C@@H]1C[C@H]2C(=O)NC3(CCC3)C(=O)N(C)[C@@H](C3CCCC3)C(=O)N(C)[C@H](C(=O)N(C)C)CC(=O)N(C)[C@@H](COCC(F)(F)F)C(=O)N[C@@H]([C@@H](C)CC)C(=O)N(C)CC(=O)N(C)[C@H]3C/C=C\CCN(C3=O)[C@@H](Cc3ccc(C(F)(F)F)cc3)C(=O)N(C)CC(=O)N[C@@H](CCc3cc(F)c(C(F)(F)F)c(F)c3)C(=O)N2C1 [PP1267] |  |  |  | 10.8 | 0.046 | A (a compound having 10 or more and less than 20 is denoted as A) | A (a compound having 10 or more and less than 20 is denoted as A) | 
3 | CCO[C@@H]1C[C@H]2C(=O)NC3(CCC3)C(=O)N(C)[C@@H](C3CCCC3)C(=O)N(C)[C@H](C(=O)N(C)C)CC(=O)N(C)[C@@H](CC3CC3)C(=O)N[C@@H]([C@@H](C)CC)C(=O)N(C)CC(=O)N(C)[C@H]3C/C=C\CCN(C3=O)[C@@H](Cc3ccc(F)cc3)C(=O)N(C)CC(=O)N[C@@H](CCc3ccc(Cl)c(Cl)c3)C(=O)N2C1 [PP1478] |  |  |  | 102 | 0.34 | A (a compound having 10 or more and less than 20 is denoted as A) | A (a compound having 10 or more and less than 20 is denoted as A) | 
4 | CCCCN1CC(=O)NC2(CCC2)C(=O)N(C)[C@@H](C2CCCC2)C(=O)N(C)[C@H](C(=O)N(C)C)CC(=O)N(C)[C@@H](CC)C(=O)N[C@@H]([C@@H](C)CC)C(=O)N(C)CC(=O)N(C)[C@H]2C/C=C\CCN(C2=O)[C@@H](Cc2ccc(C(F)(F)F)cc2)C(=O)N(C)CC(=O)N[C@@H](CCc2cc(F)c(C(F)(F)F)c(F)c2)C1=O [PP1142] | 0.65 | A (a compound having 10 or more and less than 20 is denoted as A) | A (a compound having 10 or more and less than 20 is denoted as A) | 322 |  |  |  | 
5 | CC[C@H](C)[C@@H]1NC(=O)[C@@H]2CCCCc3ccc(cc3)C[C@@H](C(=O)N(C)CC(=O)N[C@@H](CCc3ccc(C(F)(F)F)c(OC)c3)C(=O)N3C[C@H](OC(C)C)C[C@H]3C(=O)NC3(CC(C)(C)C3)C(=O)N(C)[C@@H](C3CCCC3)C(=O)N(C)[C@H](C(=O)N(C)CC)CC(=O)N2C)N2CC/C=C\C[C@@H](C2=O)N(C)C(=O)CN(C)C1=O [PP3078] | 0.048 | A (a compound having 10 or more and less than 20 is denoted as A) | B (a compound having 3 or more and less than 10 is denoted as B) |  |  |  |  | ratio of the KD value with respect to GDP-bound NRAS wild-type protein to the KD value with respect to KRAS [2]: A (a compound having 10 or more and less than 20 is denoted as A); ratio of the KD value with respect to GDP-bound HRAS wild-type protein to the KD value with respect to KRAS [3]: B (a compound having 3 or more and less than 10 is denoted as B); IC50 [4, 7]: 2.3 nM
6 | CCO[C@@H]1C[C@H]2C(=O)NC3(CCC3)C(=O)N(C)[C@@H](C3CCCC3)C(=O)N(C)[C@H](C(=O)N(C)C)CC(=O)N(C)[C@@H](CC3CC3)C(=O)N[C@@H]([C@@H](C)CC)C(=O)N(C)CC(=O)N(C)[C@H]3C/C=C\CCN(C3=O)[C@@H](Cc3ccc(F)cc3C)C(=O)N(C)CC(=O)N[C@@H](CCc3ccc(Cl)c(Cl)c3)C(=O)N2C1 [PP1476] |  |  |  | 216 | 1 | A (a compound having 10 or more and less than 20 is denoted as A) | B (a compound having 3 or more and less than 10 is denoted as B) | 
7 | CCC[C@H]1C(=O)N[C@@H]([C@@H](C)CC)C(=O)N2CCC[C@H]2C(=O)N(C)[C@H]2C/C=C\CCN(C2=O)[C@@H](Cc2ccc(C(F)(F)F)cc2)C(=O)N(C)CC(=O)N[C@@H](CCc2ccc(C(F)(F)F)c(OC)c2)C(=O)N2C[C@H](OCC)C[C@H]2C(=O)N(C)C2(CCC2)C(=O)N(C)[C@@H](C2CCCC2)C(=O)N(C)[C@H](C(=O)N2CCCCC2)CC(=O)N1C [PP3099] | 0.61 | A (a compound having 10 or more and less than 20 is denoted as A) | A (a compound having 10 or more and less than 20 is denoted as A) |  |  |  |  | Kd ([1]; SPR, Single Cycle Kinetics, 1:1 binding model, read-out: KD value with respect to GDP-bound KRAS wild-type protein): 0.61 nM; ratio of the KD value with respect to GDP-bound NRAS wild-type protein to the KD value with respect to KRAS [2]: A (a compound having 10 or more and less than 20 is denoted as A); ratio of the KD value with respect to GDP-bound HRAS wild-type protein to the KD value with respect to KRAS [3]: A (a compound having 10 or more and less than 20 is denoted as A); IC50 [4, 7]: 13.3 nM
8 | CCO[C@@H]1C[C@H]2C(=O)NC3(CCC3)C(=O)N(C)[C@@H](C3CCCC3)C(=O)N(C)[C@H](C(=O)N3CCOCC3)CC(=O)N(C)[C@@H](CC3CC3)C(=O)N[C@@H]([C@@H](C)CC)C(=O)N(C)CC(=O)N(C)[C@H]3CCCCCN(C3=O)[C@@H](Cc3ccc(F)cc3)C(=O)N(C)CC(=O)N[C@@H](CCc3cc(F)c(C(F)(F)F)c(F)c3)C(=O)N2C1 [PP1178] | 0.16 | B (a compound having 3 or more and less than 10 is denoted as B) | B (a compound having 3 or more and less than 10 is denoted as B) | 26.3 |  |  |  | 
9 | CC[C@H](C)[C@@H]1NC(=O)[C@H](CC2CCC2)N(C)C(=O)C[C@@H](C(=O)N(C)C)N(C)C(=O)[C@H](C2CCCC2)N(C)C(=O)C2(CCCC2)NC(=O)[C@@H]2CCCN2C(=O)[C@H](CCc2cc(F)c(C(F)(F)F)c(F)c2)NC(=O)CN(C)C(=O)[C@H](Cc2ccc(C(F)(F)F)cc2)N2C[C@H](C)CC[C@@H](C2=O)N(C)C(=O)CN(C)C1=O [PP1386] |  |  |  | 4.2 | 0.082 | B (a compound having 3 or more and less than 10 is denoted as B) | B (a compound having 3 or more and less than 10 is denoted as B) | 
10 | CCC(CC)[C@H]1C(=O)N(C)[C@H](C(=O)N(C)C)CC(=O)N(C)[C@@H](COC)C(=O)N[C@@H]([C@@H](C)CC)C(=O)N(C2CC2)CC(=O)N(C)[C@H]2C/C=C\CCN(C2=O)[C@@H](CC2CCC(F)(F)CC2)C(=O)N(C)CC(=O)N[C@@H](CCc2cc(F)c(C(F)(F)F)c(F)c2)C(=O)N2C[C@H](OC3CCC3)C[C@H]2C(=O)NC2(CC(C)(C)C2)C(=O)N1C [PP2615] |  |  |  | 88.7 |  |  |  | Kd ([1]; SPR Single Cycle Kinetics, GDP-bound KRAS wild-type protein, 1:1 binding model, read-out: KRAS KD): 2 nM; NRAS/KRAS (ratio of KD value with respect to GDP-bound NRAS wild-type protein to KD value with respect to KRAS) ([2]; SPR KD ratio NRAS/KRAS, class symbols): A (a compound having 10 or more and less than 20 is denoted as A); HRAS/KRAS (ratio of KD value with respect to GDP-bound HRAS wild-type protein to KD value with respect to KRAS) ([3]; SPR KD ratio HRAS/KRAS, class symbols): A (a compound having 10 or more and less than 20 is denoted as A)
11 | CCO[C@@H]1C[C@H]2C(=O)NC3(CCC3)C(=O)N(C)[C@@H](C3CCCC3)C(=O)N(C)[C@H](C(=O)N3CCOCC3)CC(=O)N(C)[C@@H](CC3CCCCC3)C(=O)N[C@@H]([C@@H](C)CC)C(=O)N(C)CC(=O)N(C)[C@H]3C/C=C\CCN(C3=O)[C@@H](Cc3ccc(C(F)(F)F)cc3)C(=O)N(C)CC(=O)N[C@@H](CCc3cc(F)c(C(F)(F)F)c(F)c3)C(=O)N2C1 [PP1418] |  |  |  | 29.9 | 0.24 | AA (a compound having 20 or more is denoted as AA) | A (a compound having 10 or more and less than 20 is denoted as A) | 
12 | CCO[C@@H]1C[C@H]2C(=O)NC3(CCC3)C(=O)N(C)[C@@H](C3CCCC3)C(=O)N(C)[C@H](C(=O)N(C)C)CC(=O)N(C)[C@@H](CC)C(=O)N[C@@H](C3CCC3)C(=O)N(C)CC(=O)N(C)[C@H]3C/C=C\CCN(C3=O)[C@@H](Cc3ccc(C(F)(F)F)cc3)C(=O)N(C)CC(=O)N[C@@H](CCc3cc(F)c(C(F)(F)F)c(F)c3)C(=O)N2C1 [PP1269, (2S,8S,12R,14S,20S,23S,27S,30S,36S,38Z)-30-cyclobutyl-20-cyclopentyl-8-[2-[3,5-difluoro-4-(trifluoromethyl)phenyl]ethyl]-12-ethoxy-27-ethyl-N,N,4,19,22,26,32,35-octamethyl-3,6,9,15,18,21,25,28,31,34,42-undecaoxo-2-[[4-(trifluoromethyl)phenyl]methyl]spiro[1,4,7,10,16,19,22,26,29,32,35-undecazatricyclo[34.5.1.0^10,14]dotetracont-38-ene-17,1′-cyclobutane]-23-carboxamide] |  |  |  | 29 | 0.091 | A (a compound having 10 or more and less than 20 is denoted as A) | B (a compound having 3 or more and less than 10 is denoted as B) | 

From patent publication US20240158446A1, “CYCLIC COMPOUND HAVING SELECTIVE INHIBITORY ACTION ON KRAS OVER HRAS AND NRAS” (CHUGAI SEIYAKU KABUSHIKI KAISHA, priority 2021, published 2024)
